# Legend:
# human MC4 receptor = biological target: T1, human MC4 receptor (Homo sapiens, UniProt P32245); assay: [125I]-NDP-MSH radio-ligand binding, MC4 (h) receptor (recombinant CHO cells); settings: 120 min/37° C.
# T1 construct: expressed in transfected cells; host or cells: CHO cells
# Protocol: (§1) Determination of binding affinities for MC receptors was performed by [^125I]-[Nle4,D-Phe7]α-MSH ([^125I]-NDP-MSH) radio-ligand binding. In short, murine B16-F1 melanoma cells expressing MC1, but not other MC receptors, were used for binding affinity studies against the murine MC1 receptor (Siegrist et al.; 1988, J. Recept. Res., 8(1-4):323-43). For human MC3, MC4 and MC5 receptor affinities human recombinant CHO cells were used (Schioth et al. 1997, Neuropeptides 31:565-71, 1997). Cells were suspended in HEPES buffer and by use of microwell plates radio-ligands, as well as test compound, in the concentration range of 10^−10 to 10^−6 were added. After incubation at 37° C. (22° C. for the MC1 receptor assay) separation of bound and free [^125I]-NDP-MSH was done by multiple washings with buffer.
# (§2) The results were expressed as a percent of control specific binding obtained in the presence of the test compounds. The IC50 values (concentration causing a half-maximal inhibition of control specific binding) and Hill coefficients (nH) were determined by non-linear regression analysis of the competition curves using Hill equation curve fitting. The inhibition constants (Ki) were calculated from the Cheng Prusoff equation (Ki=IC50/(1+(L/KD)), where L=concentration of radio-ligand in the assay, and KD=affinity of the radio-ligand for the receptor).
# IL10 = assay: Inhibition of LPS-induced IL10 production in rats; type: in vivo, rat; settings: for Serum IL10 measured 120 after initiation of LPS infusion: mean ± SE, N = 6; for reduction of serum level of IL10 compared to vehicle treatment: 5.0 mg/kg dose level; for dose level of maximal effect (IL10): doses tested 0.1, 1.0, 5.0 mg/kg i.v.
# Protocol: (§3) Experimental animals. Female Wistar rats (˜250 g) were obtained from the Charles River, Sulzfeld, Germany, and housed in a temperature- (22-24° C.) and moisture-controlled (40-70%) room with a 12 h light-dark cycle (light on from 6:00 A.M. to 6:00 P.M.). The rats were maintained on a standard rodent diet with 140 mmol/kg of sodium, 275 mmol/kg potassium and 23% protein (Altromin International, Lage, Germany) and had free access to water.
# (§4) Animal preparation. […] After instrumentation, the animals were housed individually for 7-10 days until the day of the experiment.
# (§5) Experimental protocol. Prior to the experiments all rats were adapted to the restraining cage used for the experiments by training. On the day of the experiment, the animal were transferred to a restraining cage, and an intravenous infusion of vehicle solution containing 150 mM glucose was started. The infusion rate was 0.5 ml/h throughout the experiment. After a short adaptation period, infusion of lipopolysaccharide (LPS) was started. LPS (E. coli serotype 0127 B8, L 3129, Sigma, St. Louis, USA) was given at a dose of 4 mg/kg body weight delivered as an i.v. infusion over 1 hour.
# (§6) Arterial blood samples of 0.3 ml were taken 120 minutes after start of the LPS infusion.
# (§7) In addition to LPS infusion all rats were treated with a bolus injection of:
# (§8) Vehicle (0.5 mL 20% PEG200) or test compound in one of the following doses:
# (§9) 0.1; 1.0; 5.0 mg/kg given intravenously 5 min prior to initiation of the LPS infusion.
# (§10) Test compounds: Compound 1 of the invention (FIG. 1A, structure no. 1), compound 2 of the invention (FIG. 1D, structure no. 19) and compound 3 of the invention (FIG. 1I, structure no. 53).
# (§11) Measurement of TNF-α and IL-10 in plasma: The blood samples were collected in a prechilled test tube with 0.5 mM EDTA, pH 7.4, and 20×10^6 IU/ml aprotinin. After centrifugation at 4° C., plasma samples were transferred to pre-chilled test tubes and stored at −20° C. for later measurements of TNF-α and IL-10. TNF-α and Il-10 in plasma were determined by an ELISA (Biotrak, Amersham, UK).
# (§12) Statistical analyses. Results are presented as means±SE. A two-way ANOVA for repeated measures was used to test for differences between groups. In case of P<0.05, the differences between corresponding periods are evaluated by unpaired t-tests with Bonferroni's correction of the level of significance.
# murine MC1 receptor = biological target: T2, murine MC1 receptor (Mus musculus, UniProt Q01727); assay: [125I]-NDP-MSH radio-ligand binding, MC1 receptor (B16-F1 melanoma cells); settings: 90 min/22° C.
# T2 construct: murine B16-F1 melanoma cells expressing MC1, but not other MC receptors, were used; endogenous in cells; host or cells: murine B16-F1 melanoma cells
# T2 sequence (Q01727 whole entry): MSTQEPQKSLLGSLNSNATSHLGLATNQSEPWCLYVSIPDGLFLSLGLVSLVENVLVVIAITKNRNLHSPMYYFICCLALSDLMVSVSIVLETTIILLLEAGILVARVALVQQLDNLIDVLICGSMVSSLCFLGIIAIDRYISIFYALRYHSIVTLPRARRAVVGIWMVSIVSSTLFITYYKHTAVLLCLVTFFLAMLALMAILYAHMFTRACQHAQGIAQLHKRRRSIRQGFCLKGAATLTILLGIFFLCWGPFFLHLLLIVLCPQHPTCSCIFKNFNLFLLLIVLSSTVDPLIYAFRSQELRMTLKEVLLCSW
# Protocol: as §1, §2
# human MC5 receptor = biological target: T3, human MC5 receptor (Homo sapiens, UniProt P33032); assay: [125I]-NDP-MSH radio-ligand binding, MC5 (h) receptor (recombinant CHO cells); settings: 60 min/37° C.
# T3 construct: expressed in transfected cells; host or cells: CHO cells
# T3 sequence (P33032 whole entry): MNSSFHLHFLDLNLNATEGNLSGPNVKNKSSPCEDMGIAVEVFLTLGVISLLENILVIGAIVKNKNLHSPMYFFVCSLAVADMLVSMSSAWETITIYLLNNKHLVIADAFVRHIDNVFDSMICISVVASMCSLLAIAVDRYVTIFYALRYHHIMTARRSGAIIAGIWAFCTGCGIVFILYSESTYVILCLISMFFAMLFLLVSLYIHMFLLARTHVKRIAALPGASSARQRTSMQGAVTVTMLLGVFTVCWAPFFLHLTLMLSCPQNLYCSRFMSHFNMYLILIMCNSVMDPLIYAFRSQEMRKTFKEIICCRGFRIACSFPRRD
# Protocol: as §1, §2
# TNF-α = assay: Inhibition of LPS-induced TNF-α production in rats; type: in vivo, rat; settings: for Serum TNF-α measured 120 after initiation of LPS infusion: mean ± SE, N = 6; for reduction of serum level of TNF-α compared to vehicle treatment: 5.0 mg/kg dose level, 120 min after initiation of LPS infusion
# Protocol: as §3, §4, §5, §6, §7, §8, §9, §10, §11, §12
# human MC3 receptor = biological target: T4, human MC3 receptor (Homo sapiens, UniProt P41968); assay: [125I]-NDP-MSH radio-ligand binding, MC3 (h) receptor (recombinant CHO cells); settings: 60 min/37° C.
# T4 construct: expressed in transfected cells; host or cells: CHO cells
# T4 sequence (P41968 whole entry): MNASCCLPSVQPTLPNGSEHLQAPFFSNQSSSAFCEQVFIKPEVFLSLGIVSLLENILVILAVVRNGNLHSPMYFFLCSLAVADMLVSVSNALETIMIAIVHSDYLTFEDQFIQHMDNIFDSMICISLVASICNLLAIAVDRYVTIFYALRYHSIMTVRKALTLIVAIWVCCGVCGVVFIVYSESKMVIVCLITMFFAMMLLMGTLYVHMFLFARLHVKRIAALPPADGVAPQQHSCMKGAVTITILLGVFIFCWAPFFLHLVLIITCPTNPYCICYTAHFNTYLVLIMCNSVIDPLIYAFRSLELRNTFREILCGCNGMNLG
# Protocol: as §1, §2
# [1] = 0.1 mg/kg i.v. 5 min prior to LPS
# [2] = 1.0 mg/kg i.v. 5 min prior to LPS
# [3] = 120 min after initiation of LPS infusion
# [4] = 5.0 mg/kg i.v. 5 min prior to LPS
# T1 sequence (P32245 whole entry): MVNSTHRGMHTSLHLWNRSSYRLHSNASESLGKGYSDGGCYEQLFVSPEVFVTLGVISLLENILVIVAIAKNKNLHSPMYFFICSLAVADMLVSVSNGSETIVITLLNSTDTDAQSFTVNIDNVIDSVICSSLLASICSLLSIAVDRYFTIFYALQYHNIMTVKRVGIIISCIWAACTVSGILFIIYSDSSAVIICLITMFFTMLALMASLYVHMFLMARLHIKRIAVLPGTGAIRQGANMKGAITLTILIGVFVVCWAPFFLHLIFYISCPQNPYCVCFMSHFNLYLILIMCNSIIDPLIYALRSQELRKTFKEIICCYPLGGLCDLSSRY
SMILES,Ki (human MC4 receptor) [nM],Serum IL10 measured 120 after initiation of LPS infusion (IL10; [1]) [pg/mL],Serum IL10 measured 120 after initiation of LPS infusion (IL10; [2]) [pg/mL],reduction of serum level of IL10 compared to vehicle treatment (IL10; [3]) [%],Serum IL10 measured 120 after initiation of LPS infusion (IL10; [4]) [pg/mL],dose level of maximal effect (IL10) (IL10) [mg/kg],Ki (murine MC1 receptor) [nM],Ki (human MC5 receptor) [nM],Serum TNF-α measured 120 after initiation of LPS infusion (TNF-α; [1]) [pg/mL],Serum TNF-α measured 120 after initiation of LPS infusion (TNF-α; [2]) [pg/mL],reduction of serum level of TNF-α compared to vehicle treatment (TNF-α) [%],Serum TNF-α measured 120 after initiation of LPS infusion (TNF-α; [4]) [pg/mL],Ki (human MC3 receptor) [nM],"dose level of maximal anti-inflammatory effect (TNF-α) (TNF-α; doses tested 0.1, 1.0, 5.0 mg/kg i.v.) [mg/kg]","reduction of IL10 response compared to vehicle treatment (IL10; 1.0 mg/kg dose level, 120 min after initiation of LPS infusion) [%]"
"N=C(N)NN=CC=Cc1cccn1-c1ccc(Cl)cc1 [Compound 1, [1-(4-chlorophenyl)-1H-pyrrol-2-yl-allylideneamino]guanidinium acetate]",620,8485 ± 960,5978 ± 890,~25,5651 ± 325,5.0,88,> 1000,10830 ± 4031,6230 ± 1786,~60,5800 ± 703,> 1000,–,–
"N=C(N)NN=CC=Cc1cccn1-c1ccccc1[N+](=O)[O-] [Compound 2, [1-(2-nitrophenyl)-1H-pyrrol-2-yl-allylideneamino]guanidinium acetate]",> 1000,7606 ± 1313,4770 ± 1387,~46,4053 ± 894,5.0,360,> 1000,5964 ± 957,6130 ± 601,–,8380 ± 2694,> 1000,0.1,–
"N=C(N)NN=CC=Cc1cccn1-c1ccccc1Br [Compound 3, [1-(2-bromophenyl)-1H-pyrrol-2-yl-allylideneamino]guanidinium acetate]",300,5658 ± 1119,3452 ± 1091,–,3856 ± 973,1.0,2.6,> 1000,10310 ± 2728,5250 ± 1113,~60,5020 ± 862,630,–,~55
